Columns and labels:
[1] = biological target: isolated recombinant JAK2 kinase domain (Homo sapiens (Human), UniProt O60674); test: JAK2 enzyme assay (Caliper LabChip, Ki); assay type: biochemical; details: isolated recombinant JAK2 kinase domain, 0.2 nM enzyme, ATP 25 μM
[2] = biological target: isolated recombinant JAK1 kinase domain (Homo sapiens (Human), UniProt P23458); test: JAK1 enzyme assay (Caliper LabChip, Ki); assay type: biochemical; details: isolated recombinant JAK1 kinase domain, 1.5 nM enzyme, ATP 25 μM
Chain of isolated recombinant JAK1 kinase domain (P23458 875-1153): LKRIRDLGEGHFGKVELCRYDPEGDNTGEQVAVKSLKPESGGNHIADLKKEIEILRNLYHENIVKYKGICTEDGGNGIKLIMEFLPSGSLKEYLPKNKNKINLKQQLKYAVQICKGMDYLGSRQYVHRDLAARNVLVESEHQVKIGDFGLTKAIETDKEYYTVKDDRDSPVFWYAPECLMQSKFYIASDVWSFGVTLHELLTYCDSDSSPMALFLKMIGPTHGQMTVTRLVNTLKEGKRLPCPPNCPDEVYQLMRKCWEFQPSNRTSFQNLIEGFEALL

Chain of isolated recombinant JAK2 kinase domain (O60674 849-1124): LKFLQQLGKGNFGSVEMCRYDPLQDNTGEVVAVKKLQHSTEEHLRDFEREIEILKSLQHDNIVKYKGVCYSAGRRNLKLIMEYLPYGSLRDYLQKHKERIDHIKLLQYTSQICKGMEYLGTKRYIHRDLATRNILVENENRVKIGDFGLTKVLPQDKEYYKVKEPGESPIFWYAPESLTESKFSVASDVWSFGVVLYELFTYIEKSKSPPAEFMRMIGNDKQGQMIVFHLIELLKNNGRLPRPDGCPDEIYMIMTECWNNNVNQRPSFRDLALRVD

**Q.** With `CN1CCN(C(=O)Cn2cc(Nc3nc4c(N5CC6CCC(C5)N6C(=O)N5CCC(C#N)CC5)cccn4n3)cn2)CC1` [Example 182, 1-[3-[2-[[1-[2-(4-methylpiperazin-1-yl)-2-oxo-ethyl]pyrazol-4-yl]amino]-[1,2,4]triazolo[1,5-a]pyridin-8-yl]-3,8-diazabicyclo[3.2.1]octane-8-carbonyl]piperidine-4-carbonitrile] as the compound, how does the Ki [1] read?
**A.** Its Ki is 0.9 nM.

**Q.** And the Ki [2]?
**A.** The Ki was 0.6 nM.

**Q.** Which results are given for `CN1CCN(C(=O)Cn2cc(Nc3nc4c(N5CC6CCC(C5)N6S(=O)(=O)Cc5ccc(C(F)(F)F)cc5)cccn4n3)cn2)CC1` [Example 184, 1-(4-methylpiperazin-1-yl)-2-[4-[[8-[8-([4-(trifluoromethyl)phenyl]methylsulfonyl]-3,8-diazabicyclo[3.2.1]octan-3-yl]-[1,2,4]triazolo[1,5-a]pyridin-2-yl]amino]pyrazol-1-yl]ethanone]?
**A.** Ki [1]: 2.3 nM; Ki [2]: 1 nM

**Q.** Which Ki [1] does the source give for `CSCCN1CCN(C(=O)Cn2cc(Nc3nc4c(N5CC6CCC(C5)N6C(=O)N5CC(C(F)(F)F)C5)cccn4n3)cn2)CC1` [Example 186, 1-[4-(2-methylsulfanylethyl)piperazin-1-yl]-2-[4-[[8-[8-(3-(trifluoromethyl)azetidine-1-carbonyl]-3,8-diazabicyclo[3.2.1]octan-3-yl]-[1,2,4]triazolo[1,5-a]pyridin-2-yl]amino]pyrazol-1-yl]ethanone; formic acid] here?
**A.** Its Ki is 0.2 nM.

**Q.** And the Ki [2]?
**A.** Its Ki is 0.2 nM.

**Q.** How did the Ki [1] turn out when `CN1CCN(C(=O)Cn2cc(Nc3nc4c(N5CC6CCC(C5)N6C(=O)N5CCC(F)(F)CC5)cccn4n3)cn2)CC1` [Example 188, 2-[4-[[8-[8-(4,4-difluoropiperidine-1-carbonyl)-3,8-diazabicyclo[3.2.1]octan-3-yl]-[1,2,4]triazolo[1,5-a]pyridin-2-yl]amino]pyrazol-1-yl]-1-(4-methylpiperazin-1-yl)ethanone] was run?
**A.** The Ki was 0.2 nM.

**Q.** What about the Ki [2] of the same compound?
**A.** Its Ki is 0.2 nM.

**Q.** What does the source list for `N#CC1(CNC2CCN(C(=O)Cn3cc(Nc4nc5c(N6CC7CCC(C6)N7C(=O)C6CC(C(F)(F)F)C6)cccn5n4)cn3)CC2)CC1` (stereo not shown) [Example 190, 1-[[[1-[2-[4-[[8-[8-[3-(trifluoromethyl)cyclo-butanecarbonyl]-3,8-diazabicyclo[3.2.1]octan-3-yl]-[1,2,4]triazolo[1,5-a]pyridin-2-yl]amino]pyrazol-1-yl]acetyl]-4-piperidyl]amino]methyl]-cyclopropanecarbonitrile]?
**A.** Ki [1]: 1.8 nM; Ki [2]: 1 nM

**Q.** With `N#CC1(CNC2CCN(C(=O)Cn3cc(Nc4nc5c(N6CC7CCC(C6)N7C(=O)C6CC(C(F)(F)F)C6)cccn5n4)cn3)CC2)CC1` (stereo not shown) [Example 191, 1-[[[1-[2-[4-[[8-[8-[3-(trifluoromethyl)cyclo-butanecarbonyl]-3,8-diazabicyclo[3.2.1]octan-3-yl]-[1,2,4]triazolo[1,5-a]pyridin-2-yl]amino]pyrazol-1-yl]acetyl]-4-piperidyl]amino]methyl]-cyclopropanecarbonitrile] as the compound, how does the Ki [1] read?
**A.** The Ki was 7.8 nM.

**Q.** What about the Ki [2] of the same compound?
**A.** Its Ki is 3.5 nM.

**Q.** What does the source list for `CN(CC1(C#N)CC1)C1CCN(C(=O)Cn2cc(Nc3nc4c(N5CC6CCC(C5)N6C(=O)C5CC(C(F)(F)F)C5)cccn4n3)cn2)CC1` (stereo not shown) [Example 192, 1-[[methyl-[1-[2-[4-[[8-[8-[3-(trifluoromethyl)cyclo-butanecarbonyl]-3,8-diazabicyclo[3.2.1]octan-3-yl]-[1,2,4]triazolo[1,5-a]alpyridin-2-yl]amino]pyrazol-1-yl]acetyl]-4-piperidyl]amino]methyl]-cyclopropanecarbonitrile]?
**A.** Ki [1]: 1.1 nM; Ki [2]: 0.9 nM

**Q.** What does the source list for `CN(CC1(C#N)CC1)C1CCN(C(=O)Cn2cc(Nc3nc4c(N5CC6CCC(C5)N6C(=O)C5CC(C(F)(F)F)C5)cccn4n3)cn2)CC1` (stereo not shown) [Example 193, 1-[[methyl-[1-[2-[4-[[8-[8-[3-(trifluoromethyl)cyclobutanecarbonyl]-3,8-diazabicyclo[3.2.1]octan-3-yl]-[1,2,4]triazolo[1,5-a]pyridin-2-yl]amino]pyrazol-1-yl]acetyl]-4-piperidyl]amino]methyl]-cyclopropanecarbonitrile]?
**A.** Ki [1]: 0.7 nM; Ki [2]: 0.6 nM

**Q.** `O=C(Cn1cc(Nc2nc3c(N4CC5CCC(C4)N5C(=O)N4CC(C(F)(F)F)C4)cccn3n2)cn1)N1CCN(C2COC2)CC1` [Example 194, 1-[4-(oxetan-3-yl)piperazin-1-yl]-2-[4-[[8-[8-[3-(trifluoromethyl)azetidine-1-carbonyl]-3,8-diazabicyclo[3.2.1]octan-3-yl]-[1,2,4]triazolo[1,5-a]pyridin-2-yl]amino]pyrazol-1-yl]ethanone] was tested. Which Ki [1] did it give?
**A.** The Ki was 0.4 nM.

**Q.** What about the Ki [2] of the same compound?
**A.** The Ki was 0.9 nM.

**Q.** Which results are given for `CN1CCN(C(=O)Cn2cc(Nc3nc4c(N5C[C@H]6CC[C@@H](C5)[C@H]6OCc5cccc(CO)c5)cccn4n3)cn2)CC1` [Example 195, 1-(4-methylpiperazin-1-yl)-2-[4-[[8-[rac-(1S,5R)-8-[[3-(hydroxymethyl)phenyl]methoxy]-3-azabicyclo[3.2.1]octan-3-yl]-[1,2,4]triazolo[1,5-a]pyridin-2-yl]amino]pyrazol-1-yl]ethanone]?
**A.** Ki [1]: 0.7 nM; Ki [2]: 0.4 nM

**Q.** What does the source list for `CN1CCN(C(=O)Cn2cc(Nc3nc4c(N5CC6CCC(C5)N6C(=O)c5cnc(CC(F)(F)F)s5)cccn4n3)cn2)CC1` [Example 196]?
**A.** Ki [1]: 1.1 nM; Ki [2]: 0.6 nM

**Q.** Which results are given for `CSCCN1CCN(C(=O)Cn2cc(Nc3nc4c(N5CC6CCC(C5)N6C(=O)C5CC(C(F)(F)F)C5)cccn4n3)cn2)CC1` (stereo not shown) [Example 197, 1-[4-(2-methylsulfanylethyl)-piperazin-1-yl]-2-[4-[[8-[8-[3-(trifluoromethyl)-cyclobutanecarbonyl]-3,8-diazabicyclo[3.2.1]octan-3-yl]-[1,2,4]triazolo[1,5-a]pyridin-2-yl]amino]pyrazol-1-yl]ethanone]?
**A.** Ki [1]: 0.3 nM; Ki [2]: 0.3 nM

**Q.** `CSCCN1CCN(C(=O)Cn2cc(Nc3nc4c(N5CC6CCC(C5)N6C(=O)C5CC(C(F)(F)F)C5)cccn4n3)cn2)CC1` (stereo not shown) [Example 198, 1-[4-(2-methylsulfanylethyl)-piperazin-1-yl]-2-[4-[[8-[8-[3-(trifluoromethyl)-cyclobutanecarbonyl]-3,8-diazabicyclo[3.2.1]octan-3-yl]-[1,2,4]triazolo[1,5-a]pyridin-2-yl]amino]pyrazol-1-yl]ethanone] was tested. Which Ki [1] did it give?
**A.** Its Ki is 2.1 nM.

**Q.** What about the Ki [2] of the same compound?
**A.** Its Ki is 0.8 nM.

**Q.** What does the source list for `CN1CCN(C(=O)Cn2cc(Nc3nc4c(N5CC6CCC(C5)N6C(=O)c5cccc(C#N)c5)cccn4n3)cn2)CC1` [Example 199, 3-[3-[2-[[1-[2-(4-methylpiperazin-1-yl)-2-oxo-ethyl]pyrazol-4-yl]amino]-[1,2,4]triazolo[1,5-a]pyridin-8-yl]-3,8-diazabicyclo[3.2.1]octane-8-carbonyl]benzonitrile]?
**A.** Ki [1]: 2.1 nM; Ki [2]: 1.3 nM
